Data taken from patent publication US7348347B2, “Substituted 4,5,6,7-tetrahydrobenzthiazol-2-ylamine compounds” (Gruenenthal GmbH, priority 2004, dated 2008).

What follows are molecules tested against T1, NA transporter (Rattus norvegicus, UniProt Q63380) (assay: Inhibition of noradrenaline uptake in rat brain synaptosomes). Conditions: 10 μM; rat synaptosomes (hypothalamus), [3H]-NA.
T1 construct: from tissue; host or cells: rat brain synaptosomes (P2 fraction) from hypothalamus
Assay type: biochemical
Procedure: II. […] For in vitro studies, synaptosomes of rat brain areas are freshly isolated, as described in the article “The isolation of nerve endings from brain” by E. G. Gray and […]. Anatomy 96, pages 79-88, 1962. The relevant literature reference is enclosed herein by reference and is to be regarded as part of the disclosure. […] The homogenate is centrifuged at 4° C. for 10 minutes at 1000 g. […] The respective uptake was measured in a 96 well microtiter plate. The volume was 250 μL and the incubation was carried out at room temperature (ca 20-25° C.) under a blanket of oxygen. […] The 96 samples through were then filtered through a Unifilter GF/B® microtiter plate (Packard) and washed with 200 mL of incubated buffer with the aid of a “Brabdel Cell-Harvester MPXRI 96T”. The Unifilter GF/B plate was dried at 55° C. over a period of 1 h. The plate was then sealed with a back seal® (Packard) and there were then added 35 μL of scintillant fluid per well (Ultima Gold, Packard). Following sealing with a top seal® (Packard) and following adjustment of the equilibrium (approximately over a period of 5 h), the radioactivity is determined in a 1450 Microbeta® (Wallac). […] The amount of protein used in the above determination corresponded to the values known from the literature, such as is described in “Protein measurement with the folin phenol reagent”, Lowry et al., J. Biol. Chem., 193, 265-275, 1951. A detailed description of the method is disclosed in the literature, for example, in […], and B. […] The relevant literature references are incorporated herein by reference and are to be regarded as part of the disclosure.

T1 sequence (Q63380 1-617): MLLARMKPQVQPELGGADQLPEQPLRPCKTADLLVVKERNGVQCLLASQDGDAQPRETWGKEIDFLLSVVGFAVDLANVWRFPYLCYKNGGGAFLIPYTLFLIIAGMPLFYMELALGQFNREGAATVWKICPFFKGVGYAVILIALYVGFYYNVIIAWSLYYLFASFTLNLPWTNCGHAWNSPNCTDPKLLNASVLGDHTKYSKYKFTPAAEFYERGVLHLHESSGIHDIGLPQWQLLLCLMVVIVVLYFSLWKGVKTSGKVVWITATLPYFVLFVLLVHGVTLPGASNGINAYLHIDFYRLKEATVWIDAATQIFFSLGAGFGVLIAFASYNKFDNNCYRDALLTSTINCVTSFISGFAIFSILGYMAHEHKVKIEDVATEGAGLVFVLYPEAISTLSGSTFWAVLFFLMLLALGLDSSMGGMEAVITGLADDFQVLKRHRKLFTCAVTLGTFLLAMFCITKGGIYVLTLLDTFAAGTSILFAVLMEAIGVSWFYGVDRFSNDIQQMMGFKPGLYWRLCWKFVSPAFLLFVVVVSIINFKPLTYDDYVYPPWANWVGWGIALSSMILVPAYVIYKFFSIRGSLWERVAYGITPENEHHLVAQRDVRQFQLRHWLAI

Row | SMILES | % Inhibition of NA uptake [10 μM]
1 | CCCCCC(=O)Nc1nc2c(s1)CCCC2C(=O)N1CCN(c2ccccc2F)CC1 (centres unmarked) [Example 52, Hexanoic acid{4-[4-(2-fluorophenyl)piperazin-1-carbonyl]-4,5,6,7-tetrahydrobenzthiazol-2-yl}amide] | 72%
2 | N#Cc1ccccc1N1CCN(C(=O)C2CCCc3sc(NC(=O)c4ccco4)nc32)CC1 (centres unmarked) [Example 47, Furan-2-carboxylic acid{4-[4-(2-cyan-phenyl)piperazin-1-carbonyl]-4,5,6,7-tetrahydrobenzthiazol-2-yl]-amide] | 47%
3 | CC(C(=O)Nc1nc2c(s1)CCCC2C(=O)NC1CCN(Cc2ccc(Oc3ccccc3)cc2)C1)c1ccccc1 (centres unmarked) [Example 15, 2-(2-Phenylpropionylamino)-4,5,6,7-tetrahydrobenzthiazol-4-carboxylic acid[1-(4-phenoxybenzyl)pyrrolidin-3-yl]amide] | 91%
4 | CC(C(=O)Nc1nc2c(s1)CCCC2C(=O)NCC1CCN(Cc2ccccc2OCc2ccccc2)C1)c1ccccc1 (centres unmarked) [Example 36, 2-(2-Phenylpropionylamino)-4,5,6,7-tetrahydrobenzthiazol-4-carboxylic acid[1-(2-benzyloxybenzyl)pyrrolidin-3-yl]methylamide] | 62%
5 | N#Cc1ccccc1N1CCN(C(=O)C2CCCc3sc(NC(=O)CCc4ccccc4)nc32)CC1 (centres unmarked) [Example 77, N-{4-[4-(2-Cyan-phenyl)piperazin-1-carbonyl]-4,5,6,7-tetrahydrobenzthiazol-2-yl}-3-phenylpropionamide] | 44%

Same assay, conditions: 10 μM; rat synaptosomes (hypothalamus), [3H]-NA; read-out: % Inhibition of NA uptake [10 μM]

Row | SMILES | inhibition at 10 µM
6 | CC(C(=O)Nc1nc2c(s1)CCCC2C(=O)NCCN(C)C)c1ccccc1 (centres unmarked) [Example 19, 2-(2-Phenylpropionylamino)-4,5,6,7-tetrahydrobenzthiazol-4-carboxylic acid (2-dimethylaminoethyl)amide] | 71%
7 | CC(C(=O)Nc1nc2c(s1)CCCC2C(=O)NCCCN(C)C)c1ccccc1 (centres unmarked) [Example 3, 2-(2-Phenylpropionylamino)-4,5,6,7-tetrahydrobenzthiazol-4-carboxylic acid (3-dimethylaminopropyl)amide] | 65%
8 | COc1ccccc1CC(=O)Nc1nc2c(s1)CCCC2C(=O)NCC1CCN(Cc2cc3ccccc3o2)C1 (centres unmarked) [Example 56, 2-[2-(2-Methoxyphenyl)acetylamino]-4,5,6,7-tetrahydrobenzthiazol-4-carboxylic acid (1-benzofuran-2-ylmethylpyrrolidin-3-yl)methylamide] | 49%
9 | O=C(CC1CCCCC1)Nc1nc2c(s1)CCCC2C(=O)NCC1CCN(Cc2c(F)cccc2Cl)C1 (centres unmarked) [Example 78, 2-(2-Cyclohexylacetylamino)-4,5,6,7-tetrahydrobenzthiazol-4-carboxylic acid [1-(2-chloro-6-fluorobenzyl)pyrrolidin-3-yl]methylamide] | 41%
10 | O=C(CCc1ccccc1)Nc1nc2c(s1)CCCC2C(=O)N1CCN(c2cccc(C(F)(F)F)c2)CC1 (centres unmarked) [Example 72, 3-Phenyl-N-{4-[4-(3-trifluoromethylphenyl)piperazin-1-carbonyl]-4,5,6,7-tetrahydrobenzthiazol-2-yl}propionamide] | 51%
11 | CC(c1ccccc1)N1CCN(C(=O)C2CCCc3sc(NC(=O)COc4ccccc4)nc32)CC1 (centres unmarked) [Example 66, 2-Phenoxy-N-{4-[4-(1-phenylethyl)piperazin-1-carbonyl]-4,5,6,7-tetrahydrobenzthiazol-2-yl}acetamide] | 48%
12 | O=C(CCc1ccccc1)Nc1nc2c(s1)CCCC2C(=O)NCC1CCN(Cc2ccc(-c3ccccc3)cc2)C1 (centres unmarked) [Example 55, 2-(3-Phenylpropionylamino)-4,5,6,7-tetrahydrobenzthiazol-4-carboxylic acid (1-biphenyl-4-ylmethylpyrrolidin-3-yl)methylamide] | 44%
13 | CN(C)c1ccc(CNC(=O)C2CCCc3sc(NC(=O)c4ccco4)nc32)cc1 (centres unmarked) [Example 58, 2-[(Furan-2-carbonyl)amino]-4,5,6,7-tetrahydrobenzthiazol-4-carboxylic acid 4-dimethylaminobenzylamide] | 72%
14 | O=C(C=Cc1ccco1)Nc1nc2c(s1)CCCC2C(=O)N1CCN(Cc2ccsc2)CC1 (centres unmarked) [Example 11, 3-Furan-2-yl-N-[4-(4-thiophen-3-ylmethylpiperazin-1-carbonyl)-4,5,6,7-tetrahydrobenzthiazol-2-yl]acrylamide] | 57%
15 | CN(C(=O)C1CCCc2sc(NC(=O)COc3ccccc3)nc21)C1CCN(Cc2ccccc2C(F)(F)F)C1 (centres unmarked) [Example 54, 2-(2-Phenoxyacetylamino)-4,5,6,7-tetrahydrobenzthiazol-4-carboxylic acid methyl-[1-(2-trifluoromethylbenzyl)pyrrolidin-3-yl]amide] | 44%
16 | COc1ccc2ccccc2c1CN1CCN(C(=O)C2CCCc3sc(NC(=O)CC(C)(C)C)nc32)CC1 (centres unmarked) [Example 79, N-{4-[4-(2-Methoxynaphthalene-1-ylmethyl)piperazin-1-carbonyl]-4,5,6,7-tetrahydrobenzthiazol-2-yl}-3,3-dimethylbutyramide] | 71%
17 | COc1ccc(N2CCN(C(=O)C3CCCc4sc(NC(=O)C(C)c5ccccc5)nc43)CC2C)cc1 (centres unmarked) [Example 60, N-{4-[4-(4-Methoxyphenyl)-3-methylpiperazin-1-carbonyl]-4,5,6,7-tetrahydrobenzthiazol-2-yl}-2-phenylpropionamide] | 41%
18 | O=C(Nc1nc2c(s1)CCCC2C(=O)NCCN1CCCCCC1)c1ccoc1 (centres unmarked) [Example 16, 2-[(Furan-3-carbonyl)amino]-4,5,6,7-tetrahydrobenzthiazol-4-carboxylic acid (2-azepan-1-ylethyl)amide] | 88%
19 | CCN(CC)CCNC(=O)C1CCCc2sc(NC(=O)CCc3ccccc3)nc21 (centres unmarked) [Example 38, 2-(3-Phenylpropionylamino)-4,5,6,7-tetrahydrobenzthiazol-4-carboxylic acid (2-diethylaminoethyl)amide] | 42%

These molecules were tested against T2, 5-HT uptake (Rattus norvegicus, UniProt P31652) (assay: Inhibition of 5-HT uptake in rat brain synaptosomes). Conditions: rat synaptosomes (medulla and pons), [3H]-5-HT.
T2 construct: from tissue; host or cells: rat brain synaptosomes (P2 fraction) from marrow (medulla) and pons
Assay type: biochemical
Procedure: The relevant literature reference is enclosed herein by reference and is to be regarded as part of the disclosure.
The homogenate is centrifuged at 4° C. for 10 minutes at 1000 g. Following subsequent centrifugation at 17,000 g for 55 minutes, the synaptosomes (P2 fraction) are obtained, which are then resuspended in 0.32 M […] (0.5 mL/100 mg of the original weight).
The respective uptake was measured in a 96 well microtiter plate. The volume was 250 μL and the incubation was carried out at room temperature (ca 20-25° C.) under a blanket of oxygen.
The 96 samples through were then filtered through a Unifilter GF/B® microtiter plate (Packard) and washed with 200 mL of incubated buffer with the aid of a “Brabdel Cell-Harvester MPXRI 96T”. The Unifilter GF/B plate was dried at 55° C. over a period of 1 h. The plate was then sealed with a back seal® (Packard) and there were then added 35 μL of scintillant fluid per well (Ultima Gold, Packard).
A detailed description of the method is disclosed in the literature, for example, in M. Ch.

T2 sequence (P31652 whole entry): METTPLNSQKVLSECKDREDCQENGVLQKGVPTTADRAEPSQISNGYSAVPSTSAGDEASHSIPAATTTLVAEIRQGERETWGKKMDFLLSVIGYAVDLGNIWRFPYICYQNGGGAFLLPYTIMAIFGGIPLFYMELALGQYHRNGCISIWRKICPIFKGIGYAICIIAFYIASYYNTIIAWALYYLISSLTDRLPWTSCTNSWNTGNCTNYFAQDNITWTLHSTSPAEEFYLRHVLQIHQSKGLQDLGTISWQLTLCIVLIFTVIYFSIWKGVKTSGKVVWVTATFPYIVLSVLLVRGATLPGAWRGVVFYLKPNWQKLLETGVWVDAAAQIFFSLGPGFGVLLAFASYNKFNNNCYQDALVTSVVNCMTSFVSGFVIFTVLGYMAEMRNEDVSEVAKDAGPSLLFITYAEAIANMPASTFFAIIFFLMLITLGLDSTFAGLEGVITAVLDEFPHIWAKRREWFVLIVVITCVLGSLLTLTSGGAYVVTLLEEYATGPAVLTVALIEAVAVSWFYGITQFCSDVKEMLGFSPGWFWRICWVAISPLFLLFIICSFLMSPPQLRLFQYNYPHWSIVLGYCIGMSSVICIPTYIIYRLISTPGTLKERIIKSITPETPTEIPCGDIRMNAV

Row | SMILES | inhibition at 10 µM | % Inhibition of 5-HT uptake [10 μM]
20 | CC(C(=O)Nc1nc2c(s1)CCCC2C(=O)NCCCN(C)C)c1ccccc1 (centres unmarked) [Example 3, 2-(2-Phenylpropionylamino)-4,5,6,7-tetrahydrobenzthiazol-4-carboxylic acid (3-dimethylaminopropyl)amide] | 61% | –
21 | O=C(CC1CCCCC1)Nc1nc2c(s1)CCCC2C(=O)NCC1CCN(Cc2c(F)cccc2Cl)C1 (centres unmarked) [Example 78, 2-(2-Cyclohexylacetylamino)-4,5,6,7-tetrahydrobenzthiazol-4-carboxylic acid [1-(2-chloro-6-fluorobenzyl)pyrrolidin-3-yl]methylamide] | 54% | –
22 | O=C(CCc1ccccc1)Nc1nc2c(s1)CCCC2C(=O)N1CCN(c2cccc(C(F)(F)F)c2)CC1 (centres unmarked) [Example 72, 3-Phenyl-N-{4-[4-(3-trifluoromethylphenyl)piperazin-1-carbonyl]-4,5,6,7-tetrahydrobenzthiazol-2-yl}propionamide] | 84% | –
23 | O=C(CCc1ccccc1)Nc1nc2c(s1)CCCC2C(=O)NCC1CCN(Cc2ccc(-c3ccccc3)cc2)C1 (centres unmarked) [Example 55, 2-(3-Phenylpropionylamino)-4,5,6,7-tetrahydrobenzthiazol-4-carboxylic acid (1-biphenyl-4-ylmethylpyrrolidin-3-yl)methylamide] | 54% | –
24 | CC1CCCCN1CCCNC(=O)C1CCCc2sc(NC(=O)COc3ccccc3)nc21 (centres unmarked) [Example 42, 2-(2-Phenoxyacetylamino)-4,5,6,7-tetrahydrobenzthiazol-4-carboxylic acid[3-(2-methylpiperidin-1-yl)propyl]amide] | – | 42%
25 | CCOc1ccccc1CN1CCC(CNC(=O)C2CCCc3sc(NC(=O)COc4ccccc4)nc32)C1 (centres unmarked) [Example 51, 2-(2-Phenoxyacetylamino)-4,5,6,7-tetrahydrobenzthiazol-4-carboxylic acid[1-(2-ethoxybenzyl)pyrrolidin-3-yl]methylamide] | – | 59%
26 | O=C(Nc1nc2c(s1)CCCC2C(=O)NCCN1CCCC1)c1ccc2ccccc2c1 (centres unmarked) [Example 43, 2-[(Naphthalene-2-carbonyl)amino]-4,5,6,7-tetrahydrobenzthiazol-4-carboxylic acid (2-pyrrolidin-1-ylethyl)amide] | 63% | –
27 | O=C(Nc1nc2c(s1)CCCC2C(=O)N1CCCC1CN1CCCC1)c1ccc2ccccc2c1 (centres unmarked) [Example 26, Naphthalene-2-carboxylic acid[4-(2-pyrrolidin-1-ylmethylpyrrolidin-1-carbonyl)-4,5,6,7-tetrahydrobenzthiazol-2-yl]amide] | – | 80%
28 | CN(C)CCN1CCN(C(=O)C2CCCc3sc(NC(=O)CC4CCCCC4)nc32)CC1 (centres unmarked) [Example 1, 2-Cyclohexyl-N-{4-[4-(2-Dimethylaminoethyl)piperazin-1-carbonyl]-4,5,6,7-tetrahydrobenzthiazol-2-yl}acetamide] | 65% | –
29 | CCCCCCNc1nc2c(s1)CCCC2C(=O)N(C)C1CCN(Cc2cc3ccccc3o2)C1 (centres unmarked) [Example 41, 2-Hexanylamino-4,5,6,7-tetrahydrobenzthiazol-4-carboxylic acid(1-benzofuran-2-ylmethylpyrrolidin-3-yl)methylamide] | – | 77%
